Drawing on publication PMC5406018, “TCR stimulation strength is inversely associated with establishment of functional brain-resident memory CD8 T cells during persistent viral infection” (PLoS Pathogens, 2017), this text covers EC50 for two sequences.

In general, pEC50 refers to the EC50 on a negative log10 scale, so that one unit is a factor of ten.

pEC50: −log10 of the molar value. No end group written: not given here.

This test concerns the target T1, MHC-I D^b (Mus musculus, UniProt P01899).
T1 construct: endogenous in cells; host or cells: RMA/S cells
T1 sequence (P01899 25-362): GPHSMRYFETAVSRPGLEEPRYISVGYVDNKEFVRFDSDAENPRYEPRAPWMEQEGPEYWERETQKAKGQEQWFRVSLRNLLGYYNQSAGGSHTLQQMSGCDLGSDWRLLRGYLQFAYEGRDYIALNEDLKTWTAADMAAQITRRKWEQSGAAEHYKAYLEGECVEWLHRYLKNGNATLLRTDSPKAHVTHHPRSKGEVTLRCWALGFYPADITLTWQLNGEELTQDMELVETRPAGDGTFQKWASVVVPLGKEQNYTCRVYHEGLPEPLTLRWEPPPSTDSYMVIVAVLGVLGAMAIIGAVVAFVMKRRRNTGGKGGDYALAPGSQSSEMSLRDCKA
T1 sequence (P01887 21-119 partner): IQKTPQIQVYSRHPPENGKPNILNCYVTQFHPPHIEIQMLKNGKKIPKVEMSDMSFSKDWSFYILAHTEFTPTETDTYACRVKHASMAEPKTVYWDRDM
The test can be described thus: RMA/S MHC-I stabilization assay. As to conditions: RMA/S cells cultured overnight at 26°C, peptide 1 h at RT then 2 h at 37°C; anti-D^b gMFI, percent of maximum; unit inferred; read-out: MHC-I D^b EC50 (MHC-I binding and stabilization). The method, then:
Fig 1 Characterizing the T cell response to analogues of a subdominant CD8 T cell epitope. (A) RMA/S cells were cultured overnight at 26°C. Cells were incubated with the indicated dose of peptide for 1 h at RT followed by incubation at 37C for 2 h. […] (B) RMA/S cells were cultured overnight at […] in 100 μM of peptide. Cells were then resuspended in fresh media, incubated at 37C, and sampled hourly for 4 h. […] Nuclear Nur77 (C) and intracellular IFNγ expression (D) shown. […] All data plotted as percent of maximal expression ± SD. […]
For MHC-I stabilization assays, RMA/S cells were cultured overnight at 26°C, resuspended in RPMI containing 10% FBS (10% RPMI) and peptides of different concentrations, then incubated for 1 h at room temperature followed by 2 h at 37°C. […] Each hour for 4 h an aliquot of cells was stained for 30 mins at 4°C with phycoerythrin-conjugated anti-D^b (clone 28-14-8; eBioscience), acquired on a BD FACSCanto10 instrument, and the geometric mean fluorescence intensity (gMFI) determined using FlowJo Software (Tree Star). The percent maximum gMFI was calculated as (gMFI^peptide-gMFI^no peptide)/(gMFI^max- gMFI^no peptide) x 100. EC50 and T1/2 were calculated using Prism software (GraphPad, La Jolla CA).

In the case of MGVANLDNL [LT638], the pEC50 is 6.59.

Consider QGINNLDNL [TagV], for which the pEC50 was 6.76.
